Data published in PubChem BioAssay AID1259411 (Chemical Carcinogenesis Research Information System (CCRIS), 2018).
Calls of active or inactive are those of the source. The rule behind the calls is not given here.

Test system: rodent carcinogenicity bioassays, tumor incidence
Assay: CCRIS carcinogenicity studies
Outline: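 Archive of carcinogenicity, mutagenicity, tumor promotion and tumor inhibition results drawn from journals, NCI reports and other sources, expert-reviewed; covers 1985-2011 and is no longer updated.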

C[C@]12CC[C@@H]3c4ccc(OC(=O)Cc5ccc(N(CCCl)CCCl)cc5)cc4CC[C@H]3[C@@H]1CC[C@@H]2OC(=O)Cc1ccc(N(CCCl)CCCl)cc1
carcinogen call (Species: MOUSE, Strain/Sex: B6C3F1/FEMALE, Route: GAVAGE, Dose: 0, 15, 30 MG/KG 3/WK FOR 52 WKS, Dose: 0, 15, 30 MG/KG 3/WK FOR 52 WKS, Tumor Site: Type of Lesion: LUNG: ALVEOLAR/BRONCHIOLAR ADENOMA OR CARCINOMA, LYMPHATIC SYSTEM: LYMPHOMA, MYOCARDIUM: SARCOMA, STOMACH, Tumor Site: Type of Lesion: LUNG: ALVEOLAR/BRONCHIOLAR ADENOMA OR CARCINOMA, LYMPHATIC SYSTEM: LYMPHOMA, MYOCARDIUM: SARCOMA, STOMACH): active; positive
carcinogen call (Species: MOUSE, Strain/Sex: B6C3F1/MALE, Route: GAVAGE, Dose: 0, 15, 30 MG/KG 3/WK FOR 52 WKS, Dose: 0, 15, 30 MG/KG 3/WK FOR 52 WKS, Tumor Site: Type of Lesion: LUNG: ALVEOLAR/BRONCHIOLAR ADENOMA OR CARCINOMA, HEMATOPOIETIC SYSTEM (LEUKEMIA): LYMPHOCYTIC LEUKEMIA, LYMPHATIC SYSTEM, Tumor Site: Type of Lesion: LUNG: ALVEOLAR/BRONCHIOLAR ADENOMA OR CARCINOMA, HEMATOPOIETIC SYSTEM (LEUKEMIA): LYMPHOCYTIC LEUKEMIA, LYMPHATIC SYSTEM): active; positive
carcinogen call (Species: RAT, Strain/Sex: SPRAGUE-DAWLEY/FEMALE, Route: GAVAGE, Dose: 0, 0.62, 1.25 MG/KG IN 0.05% POLYSORB 80 IN PHOS BUFF SALINE 3/WK FOR 52 WK, Dose: 0, 0.62, 1.25 MG/KG IN 0.05% POLYSORB 80 IN PHOS BUFF SALINE 3/WK FOR 52 WK): inactive; negative
carcinogen call (Species: RAT, Strain/Sex: SPRAGUE-DAWLEY/MALE, Route: GAVAGE, Dose: 0, 0.62, 1.25 MG/KG IN 0.05% POLYSORB 80 IN PHOS BUFF SALINE 3/WK FOR 52 WK, Dose: 0, 0.62, 1.25 MG/KG IN 0.05% POLYSORB 80 IN PHOS BUFF SALINE 3/WK FOR 52 WK): inactive; negative

O=C1OC2(c3ccccc31)c1ccc(O)c(Br)c1Oc1c2ccc(O)c1Br
carcinogen call (Species: MOUSE, Strain/Sex: ICR/FEMALE, Route: DERMAL, Dose: 0, 1 MG IN 0.1 ML DISTILLED WATER 2/WK FOR A MEAN TOTAL DOSE OF 136.5 MG (STUDY DURATION: 18 MO)): inactive; negative
carcinogen call (Species: MOUSE, Strain/Sex: ICR/MALE, Route: DERMAL, Dose: 0, 1 MG IN 0.1 ML DISTILLED WATER 2/WK FOR A MEAN TOTAL DOSE OF 136.5 MG (STUDY DURATION: 18 MO)): inactive; negative

CCN(CC)CCCNC(=O)Cn1ncc(-c2ccccc2)c1-c1ccccc1
carcinogen call (Species: RAT, Strain/Sex: SPRAGUE-DAWLEY/FEMALE, Route: GAVAGE, Dose: 0, 20, 80, 160 MG/KG 1/D FOR 1 YR (STUDY DURATION: 1 YR), Dose: 0, 20, 80, 160 MG/KG 1/D FOR 1 YR (STUDY DURATION: 1 YR)): inactive; negative
carcinogen call (Species: RAT, Strain/Sex: SPRAGUE-DAWLEY/MALE, Route: GAVAGE, Dose: 0, 20, 80, 160 MG/KG 1/D FOR 1 YR (STUDY DURATION: 1 YR), Dose: 0, 20, 80, 160 MG/KG 1/D FOR 1 YR (STUDY DURATION: 1 YR)): inactive; negative

O=[N+]([O-])c1c2ccccc2c2ccc3cccc4ccc1c2c43
carcinogen call (Species: MOUSE, Strain/Sex: ICR/FEMALE, Route: INTRAPERITONEAL, Dose: 0, 14 UG TOTAL DOSE (2 UG/5 µL, 4 UG/10 µL, 8 UG/20 µL DMSO ON DAYS 1,8 AND 15), 70 UG TOTAL DOSE (10 UG/5 µL, 20 UG/10, Dose: 0, 14 UG TOTAL DOSE (2 UG/5 µL, 4 UG/10 µL, 8 UG/20 µL DMSO ON DAYS 1,8 AND 15), 70 UG TOTAL DOSE (10 UG/5 µL, 20 UG/10): inactive; negative
carcinogen call (Species: MOUSE, Strain/Sex: ICR/MALE, Route: INTRAPERITONEAL, Dose: 0, 14 UG TOTAL DOSE (2 UG/5 µL, 4 UG/10 µL, 8 UG/20 µL DMSO ON DAYS 1,8 AND 15), 70 UG TOTAL DOSE (10 UG/5 µL, 20 UG/10, Dose: 0, 14 UG TOTAL DOSE (2 UG/5 µL, 4 UG/10 µL, 8 UG/20 µL DMSO ON DAYS 1,8 AND 15), 70 UG TOTAL DOSE (10 UG/5 µL, 20 UG/10): inactive; negative

CCCCNN
carcinogen call (Species: MOUSE, Strain/Sex: SWISS/FEMALE, Route: ORAL, Dose: 0, 0.0125% SOLUTION IN DRINKING WATER DAILY FOR LIFE FOR AN AVERAGE DAILY INTAKE OF 0, 1.3 MG (STUDY DURATION: 130 WK), Dose: 0, 0.0125% SOLUTION IN DRINKING WATER DAILY FOR LIFE FOR AN AVERAGE DAILY INTAKE OF 0, 1.3 MG (STUDY DURATION: 130 WK), Tumor Site: Type of Lesion: LUNG: ADENOMA, LUNG: ADENOMA OR ADENOCARCINOMA): active; positive
carcinogen call (Species: MOUSE, Strain/Sex: SWISS/MALE, Route: ORAL, Dose: 0, 0.0125% SOLUTION IN DRINKING WATER DAILY FOR LIFE FOR AN AVERAGE DAILY INTAKE OF 0, 2.1 MG (STUDY DURATION: 130 WK), Dose: 0, 0.0125% SOLUTION IN DRINKING WATER DAILY FOR LIFE FOR AN AVERAGE DAILY INTAKE OF 0, 2.1 MG (STUDY DURATION: 130 WK), Tumor Site: Type of Lesion: LUNG: ADENOMA, LUNG: ADENOMA OR ADENOCARCINOMA): active; positive

O=[N+]([O-])c1ccc(-c2cscn2)o1
carcinogen call (Species: RAT, Strain/Sex: SPRAGUE-DAWLEY/FEMALE, Route: ORAL, Dose: 0, 1540 PPM IN DIET FOR 46 WK (TOTAL DOSE: 42 MMOL/RAT) (STUDY DURATION: 68 WK), Tumor Site: Type of Lesion: MAMMARY GLAND: FIBROADENOMA, FORESTOMACH: SQUAMOUS CELL CARCINOMA): active; positive

C[C@]12C=CC(=O)C=C1CC[C@@H]1[C@@H]2[C@@H](O)C[C@@]2(C)[C@H]1CC[C@]2(O)C(=O)COC(=O)CCCc1ccc(N(CCCl)CCCl)cc1
carcinogen call (Species: RAT, Strain/Sex: SPRAGUE-DAWLEY/FEMALE, Route: GAVAGE, Dose: 0, 12 MG/KG ADMINISTERED 1, 2, 4.5 OR 9 TIMES PER MO FOR 18 MO TO GIVE MEDIAN TOTAL DOSES OF 216, 432, 938, 1872 MG/KG (, Dose: 0, 12 MG/KG ADMINISTERED 1, 2, 4.5 OR 9 TIMES PER MO FOR 18 MO TO GIVE MEDIAN TOTAL DOSES OF 216, 432, 938, 1872 MG/KG (, Tumor Site: Type of Lesion: EAR CANAL: SQUAMOUS-CELL CARCINOMA): active; positive

O=CNNC=O
carcinogen call (Species: MOUSE, Strain/Sex: SWISS/FEMALE, Route: ORAL, Dose: 0, 2% SOLUTION IN DRINKING WATER FROM AGE 6 WK FOR LIFE FOR AN AVERAGE DAILY INTAKE OF 0, 144 MG, Dose: 0, 2% SOLUTION IN DRINKING WATER FROM AGE 6 WK FOR LIFE FOR AN AVERAGE DAILY INTAKE OF 0, 144 MG, Tumor Site: Type of Lesion: LUNG: ADENOMA OR ADENOCARCINOMA): active; positive
carcinogen call (Species: MOUSE, Strain/Sex: SWISS/MALE, Route: ORAL, Dose: 0, 2% SOLUTION IN DRINKING WATER FROM AGE 6 WK FOR LIFE FOR AN AVERAGE DAILY INTAKE OF 0, 146 MG, Dose: 0, 2% SOLUTION IN DRINKING WATER FROM AGE 6 WK FOR LIFE FOR AN AVERAGE DAILY INTAKE OF 0, 146 MG, Tumor Site: Type of Lesion: LUNG: ADENOMA OR ADENOCARCINOMA): active; positive

O=[N+]([O-])c1ccc(N=Nc2c(O)ccc3ccccc23)c([N+](=O)[O-])c1
carcinogen call (Species: MOUSE, Strain/Sex: ICR/FEMALE, Route: DERMAL, Dose: 0, 1 MG IN 0.1 ML DISTILLED WATER 2/WK FOR A MEAN TOTAL DOSE OF 143.7 MG (STUDY DURATION: 18 MO)): inactive; negative
carcinogen call (Species: MOUSE, Strain/Sex: ICR/MALE, Route: DERMAL, Dose: 0, 1 MG IN 0.1 ML DISTILLED WATER 2/WK FOR A MEAN TOTAL DOSE OF 143.7 MG (STUDY DURATION: 18 MO)): inactive; negative

CCC1(c2ccccc2)C(=O)N=C(O)NC1=O (stereo not drawn)
carcinogen call (Species: MOUSE, Route: ORAL, Tumor Site: Type of Lesion: LIVER): active; positive
carcinogen call (Species: MOUSE, Strain/Sex: C3H/HE/MALE, Route: ORAL, Dose: 0, 85 MG/KG/D IN DIET FOR DURATION OF STUDY (STUDY DURATION: 91 WK)): inactive; negative
carcinogen call (Species: MOUSE, Strain/Sex: C57BL/MALE, Route: ORAL, Dose: 0, 85 MG/KG/D IN DIET FOR DURATION OF STUDY (STUDY DURATION: 100 WK)): inactive; negative
carcinogen call (Species: RAT, Route: ORAL, Tumor Site: Type of Lesion: LIVER): active; positive
carcinogen call (Species: RAT, Strain/Sex: F344/MALE, Route: ORAL, Dose: 0, 8, 30, 125, 500 PPM IN DIET FOR 104 WK (STUDY DURATION: 104 WK), Dose: 0, 8, 30, 125, 500 PPM IN DIET FOR 104 WK (STUDY DURATION: 104 WK)): inactive; negative
